Source: article PMC11276849, “A Female-Biased Chemosensory Protein PxutCSP19 in the Antennae of Papilio xuthus Tuned to Host Volatiles and Insecticides” (Insects, 2024)
Like-named read-outs stand apart in the source and are kept apart here.

Molecular target: PxutCSP19 (Papilio xuthus, UniProt A0A194QJK0)
Experiment: Fluorescence competitive binding assay (1-NPN displacement), wildtype PxutCSP19
Conditions: for F.D. (fluorescent displacement rate of ligands) / inhibition at 20 µM: ligand at 20 μM, PxutCSP19/1-NPN each 2 μM, NB = no binding; for inhibition at 20 µM: read-out: F.D. (fluorescent displacement rate of ligands), Wildtype (WT); for 1-NPN fluorescence displaced: ligand at 36 μM
Source text: The open reading frame (ORF) of PxutCSP19 was cloned with a PrimeSTAR®® Max DNA Polymerase (TaKaRa, Liaoning, Dalian, China) and gene-specific primers containing restriction enzyme sites (BamH I and Xho I) (Table S2). The PCR products were detected on a 1.5% (w/v) agarose gel, and the expected bands were cut and purified using a HiPure Gel Pure DNA Mini Kit (Magen, Guangzhou, China). Next, BamH I and Xho I were used to digest the PxutCSP19 products and pET-30a (+) plasmids, followed by purification. A T4 DNA ligase (Thermo Fisher Scientific, Waltham, MA, USA) was applied to the construction of the recombinant plasmids pET-30a (+)/PxutCSP19. After being confirmed by sequencing, the plasmids were transformed into BL21 (DE3) competent cells so as to express recombinant proteins with 1.0 mM isopropyl β-D-thiogalactoside (IPTG). Because this recombinant protein pET-30a (+)/PxutCSP19 was insoluble, we applied a protein denaturation–renaturation approach to purify PxutCSP19 with an affinity chromatography technique, in which the denaturation buffer included 8 M urea and 1.0 mM β-mercaptoethanol.
In order to investigate the ligand-binding properties of PxutCSP19 to host odorants and insecticides, we first asked whether this fluorescent probe 1-NPN was available for the binding of PxutCSP19. To calculate the binding ability of PxutCSP19 to 1-NPN, we titrated different final concentrations of 1-NPN (2~20 μM) into Tris-HCl buffer (pH 7.4) containing 2 μM PxutCSP19. The binding constant (K1-NPN) of 1-NPN to this protein was determined with GraphPad Prism 7 (GraphPad Software Inc., San Diego, CA), as previously described. The solution was excited at 337 nm and the emission peak was monitored at 414 nm on an RF-5301PC spectrofluorometer (Shimadzu, Kyoto, Japan) using a quartz micro-cuvette filled with a 100 μL mixture, with 5 nm excitation and emission slit widths. If the host odorant molecules could displace more than 40% of the 1-NPN fluorescence from the binding cavity of PxutCSP19, the compounds would be continuously added up to 36 μM with triplicates. For the binding experiments, each compound would be added into the PxutCSP19/1-NPN (each 2 μM) complex with final concentrations of 2~20 μM. […] We used the Ki values to compare the binding affinities of various ligands with the equation: Ki = [IC50]/(1 + [1-NPN]/K1-NPN), where IC50 represents the ligand concentrations displacing one half of the initial protein/1-NPN fluorescence, and [1-NPN] is the free concentration of 1-NPN at 2 μM.

[1] = Wildtype (WT), ligand up to 20 μM or 36 μM, displacing half of protein/1-NPN fluorescence, read-out: IC50

Chain of PxutCSP19 (A0A194QJK0 entry or part of it): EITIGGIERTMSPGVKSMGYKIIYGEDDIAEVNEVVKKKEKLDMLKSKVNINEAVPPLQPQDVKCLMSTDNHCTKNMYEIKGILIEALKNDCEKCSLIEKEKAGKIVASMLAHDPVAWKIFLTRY

Compound	inhibition at 20 µM	IC50	further results
C/C1=C\CC/C(C)=C/CC(C)(C)/C=C/C1 [α-Caryophyllene]	–	–	F.D. (fluorescent displacement rate of ligands) (Wildtype (WT)): 7.48%; IC50 [1]: > 20 µM
CC1=CC=C(C(C)C)CC1 [α-Terpinene]	> 40%	> 36 µM	1-NPN fluorescence displaced (wildtype): less than 50%
CN1COCN(Cc2cnc(Cl)s2)/C1=N\[N+](=O)[O-] [Thiamethoxam, reference compound]	44.6%	> 20 µM	–
COC(=O)c1ccccc1C [Methyl o-toluate]	–	–	F.D. (fluorescent displacement rate of ligands) (Wildtype (WT)): 37.28%; IC50 [1]: > 20 µM
CC(C)=CCC[C@@H](C)CC=O [Citronellal]	–	–	F.D. (fluorescent displacement rate of ligands) (Wildtype (WT)): 34.20%; IC50 [1]: > 20 µM
CCCCCCO [1-Hexanol]	39%	> 20 µM	–
COP(=O)(OC)C(O)C(Cl)(Cl)Cl (stereo not shown) [Trichlorphon, reference compound]	–	–	F.D. (fluorescent displacement rate of ligands) (Wildtype (WT)): 33.61%; IC50 [1]: > 20 µM
O=C(NC(=O)c1c(F)cccc1F)Nc1ccc(Cl)cc1 [Diflubenzuron, reference compound]	27%	> 20 µM	–
CCc1ccc(C(=O)NN(C(=O)c2cc(C)cc(C)c2)C(C)(C)C)cc1 [Tebufenozide, reference compound]	48.5%	> 20 µM	–
Farnesene	–	–	F.D. (fluorescent displacement rate of ligands) (Wildtype (WT)): 23.21%; IC50 [1]: > 20 µM
C=C(C)[C@H]1CC=C(C)CC1 [Limonene]	–	–	F.D. (fluorescent displacement rate of ligands) (Wildtype (WT)): 20.36%; IC50 [1]: > 20 µM
C/C(=N\C#N)N(C)Cc1ccc(Cl)nc1 [Acetamiprid, reference compound]	42.9%	> 20 µM	–
C=C[C@]1(C)CC[C@@H](C(=C)C)C[C@H]1C(=C)C [β-Elemene]	–	–	binding with PxutCSP19 (in words) (wildtype): no binding
O=[N+]([O-])NC1=NCCN1Cc1ccc(Cl)nc1 [Imidacloprid, reference compound]	41.7%	> 20 µM	–
O=C1CCC[C@@H]2[C@H]3CCCN4CCC[C@@H](CN12)[C@@H]34 [Matrine, reference compound]	40%	> 20 µM	–
CC1(C)C(C=C(Cl)Cl)C1C(=O)OC(C#N)c1cccc(Oc2ccccc2)c1 (stereo not drawn) [α-Cypermethrin, reference compound]	5.65%	> 20 µM	–
N#Cc1nn(-c2c(Cl)cc(C(F)(F)F)cc2Cl)c(N)c1[S+]([O-])C(F)(F)F (stereo not shown) [Fipronil, reference compound]	37.5%	> 20 µM	–

Compound	inhibition at 20 µM	IC50	further results
c1ccc2[nH]ccc2c1 [Indole]	39%	> 20 µM	–
CC1(C)[C@H]2O[C@H]2[C@H]2[C@](C)(O)[C@@H]3CC[C@@H]4[C@@H](O)[C@@]3(C[C@@H](O)[C@@]21O)C[C@@]4(C)O [Rhodojaponin III, reference compound]	–	–	F.D. (fluorescent displacement rate of ligands) (Wildtype (WT)): 38.52%; IC50 [1]: > 20 µM
CS/C(C)=N\OC(=O)N(C)SN(C)C(=O)O/N=C(\C)SC [Thiodicarb, reference compound]	37.4%	> 20 µM	–
O=C(NC(=O)c1ccccc1Cl)Nc1ccc(Cl)cc1 [Chlorbenzuron, reference compound]	–	–	F.D. (fluorescent displacement rate of ligands) (Wildtype (WT)): 42.75%; IC50 [1]: > 20 µM
O=Cc1ccccc1 [Benzaldehyde]	36.9%	> 20 µM	–
Emamectin benzoate [reference compound]	–	–	F.D. (fluorescent displacement rate of ligands) (Wildtype (WT)): 46.98%; IC50 [1]: > 20 µM
CCC/C=C/C=O [(E)-2-Hexenal]	33.8%	> 20 µM	–
C/C=C(\C)C(=O)O[C@H]1C[C@@H](OC(C)=O)[C@@]2(C(=O)OC)CO[C@H]3[C@@H](O)[C@@](C)([C@]45O[C@@]4(C)[C@H]4C[C@@H]5O[C@@H]5OC=C[C@@]54O)[C@H]4[C@]1(CO[C@]4(O)C(=O)OC)[C@@H]32 [Azadirachtin, reference compound]	34.5%	> 20 µM	–
Cc1ccc(C(C)C)cc1 [p-Isopropyl toluene]	–	–	F.D. (fluorescent displacement rate of ligands) (Wildtype (WT)): 32.32%; IC50 [1]: > 20 µM
CNC(=O)c1cc(Cl)cc(C)c1NC(=O)c1cc(Br)nn1-c1ncccc1Cl [Chlorantraniliprole, reference compound]	43.6%	> 20 µM	–
COP(=O)(NC(C)=O)SC (stereo not shown) [Acephate, reference compound]	37.1%	> 20 µM	–
O=CCc1ccccc1 [Phenylacetaldehyde]	27.3%	> 20 µM	–
O=C(NC(=O)c1ccccc1Cl)Nc1ccc(OC(F)(F)F)cc1 [Triflumuron, reference compound]	28%	> 20 µM	–
CCCSP(=O)(OCC)Oc1ccc(Br)cc1Cl (stereo not shown) [Profenofos, reference compound]	41%	> 20 µM	–
CNC(=O)ON=C(C)SC [Methomyl, reference compound]	45.4%	> 20 µM	–
CC1(C)[C@H](C(=O)O[C@H](C#N)c2cccc(Oc3ccccc3)c2)[C@@H]1C=C(Br)Br [Deltamethrin, reference compound]	39.3%	> 20 µM	–

Now from value to compound, other results behind:

inhibition at 20 µM	Compound	IC50	further results
34.6%	CC1=CCC2CC1C2(C)C (stereo not drawn) [α-Pinene]	> 20 µM	–
34.5%	C=C1C2CCC(C2)C1(C)C (stereo not shown) [Camphene]	> 20 µM	–
34.1%	CC1=CC[C@H](C(C)C)C=C1 [α-Phellandrene]	> 20 µM	–
33.3%	CC(=O)OC/C=C(\C)CCC=C(C)C [Geranyl acetate]	> 20 µM	–
35.1%	CC1=CCC2C(C1)C2(C)C (stereo not shown) [3-Carene]	> 20 µM	–
39%	CC(C)=CCC/C(C)=C/CO [Geraniol]	–	–
35.6%	CCC/C=C/CO [(E)-2-Hexen-1-ol]	> 20 µM	–
38.4%	CC1=CC[C@@H]2C[C@H]1C2(C)C [(1R)-(+)-α-Pinene]	> 20 µM	–
37.4%	Cc1ccc(C(C)C)cc1O [Carvacrol]	> 20 µM	–
28.7%	CCCC(=O)OCC [Ethyl butyrate]	> 20 µM	–
27%	CC(C)=CCC/C(C)=C/CC/C(C)=C/CO [Farnesol]	> 20 µM	–
39.7%	OCCc1ccccc1 [Phenethyl alcohol]	> 20 µM	–
> 40%	CC1=CC[C@@H](C(C)(C)O)CC1 [α-Terpineol]	> 36 µM	1-NPN fluorescence displaced (wildtype): less than 50%
29.3%	CCCCCCCCC=O [Nonanal]	> 20 µM	–
22.8%	CCCCCCCC=O [Octanal]	> 20 µM	–
33.5%	C=C1CCC2(C(C)C)CC12 (stereo not shown) [Sabinene]	> 20 µM	–
> 40%	CC1=CCC(C(C)C)=CC1 [γ-Terpinene]	> 36 µM	1-NPN fluorescence displaced (wildtype): less than 50%
28.7%	CCCCCCCCCC=O [Decanal]	> 20 µM	–
39.7%	CC(C)=CCC/C(C)=C/C=O [Citral]	> 20 µM	–
32.4%	C=CC(=C)CCC=C(C)C [Myrcene]	> 20 µM	–
27.7%	CCCCCCCCCCC=O [Undecanal]	> 20 µM	–
